# According to article PMC12970513, “Unsaturated Phosphorus Electrophiles to Probe Protein Tyrosine Phosphatases” (Angewandte Chemie (International Ed. in English), 2026):
# Legend:
# [1] = Stability of SM-PN and SM-PO in aqueous buffer by 31P NMR; type: physicochemical; conditions: room temperature
# Protocol: Next, we assessed the stability of the phosphonamidic and phosphonic acid in aqueous buffers at pH 2, pH 3.5, pH 7.4, pH 8.5, and pH 11. Therefore, SM‐PN and SM‐PO were added in the corresponding buffers and monitored for 48 h at room temperature via ^31P‐NMR with triphenylphosphinoxide (TPPO) as an internal standard (Figure S2). […] Furthermore, we evaluated the stability of the peptide probes bio‐PN and bio‐PO in human lysate for subsequent experiments. These peptides were added in HEK293T cell lysate, and changes in stability were recorded for 18 h via ^31P‐NMR, in which inorganic phosphate served as an internal standard. […] Nonetheless, both peptides display sufficient stability for follow‐up studies.
# Figure S2: pH dependent stability of phosphonamidic and phosphonic acids at room temperature monitored by ^31P NMR. a) Decay of starting material SM-PN. […] At pH 2.0 the compound was already hydrolyzed in minutes before the next measurement. b) Decay of SM-PO in identical conditions.
# Internal standard triphenylphosphine oxide (TPPO, 12 µL of a 100 mM stock in DMSO, final concentration 2 mM) and SM-PN or SM-PO (36 µL of a 50 mM stock in DMSO, final concentration 3 mM) were added in microcentrifuge tubes containing 552 µL of each test buffer solution (0.1% TFA pH 2, 50 mM NaOAc pH 3.5, 50 mM Tris pH 7.4, 50 mM Tris pH 8.5, 50 mM TEAB pH 11.0, containing 10% D2O (492 μL buffer and 60 μL D2O) and mixed right before the measurement. The mixtures were transferred to NMR tubes and one-dimensional ^31P-NMR spectra were recorded for each sample at room temperature, in intervals of 4 h over the course of 48 h on a Bruker AV-III 600 or AV-III 300 spectrometer. For analysis, the spectra were plotted in MestReNova and the intensity of the ^31P-NMR signal was analyzed by integration.
# [2] = tested on: PTP1B in MCF-7 cell lysate; assay: Lysate labeling by western blot, MCF-7; set-up: species or system human; conditions: 25–500 µM, 4 h, MCF-7 lysate 4 mg/mL
# Protocol: To verify a consistent labeling profile by TMR‐PO, we tested additional PTP1B‐containing mammalian lysates. […] Therefore, we attempted to identify conditions where more intense labeling is noticeable. […] Increasing reaction time led to a proportional increase in biotin‐signal overlapping with the PTP1B band. […] A 4‐h incubation was chosen for the following experiments for ease of protocol and due to the robust labeling observed.
# In that respect, following a 4‐h incubation time, we tested increasing concentrations of bio‐PO up to 500 µM to further increase the labeling efficiency. […] This highlights that labeling is also consistent with the abundance of PTP1B in these cell lines, which was measured by quantitative proteomics (Figure 5b). […]
# For western blot analysis, samples resolved by SDS-PAGE were transferred to a polyvinylidene difluoride (PVDF) membrane using a Trans-Blot Turbo (Bio-Rad) semi dry blotting system according to the manufacturer`s instructions. […] The HRP signal was detected using the Pierce ECL Western Blotting Substrate (ThermoFisher Scientific) and imaged using the ChemiDoc (Bio-Rad) imaging system. […] Biotin was probed against using Streptavidin-horse radish peroxidase (HRP) conjugate (Thermo Fisher Scientific, N100) at a 1:5000 dilution for 1 hour at room temperature and the HRP signal was detected as mentioned above. […]
Compound,"stability in neutral and basic pH ([1]; 50 mM Tris pH 7.4, 50 mM Tris pH 8.5, 50 mM TEAB pH 11.0, 3 mM compound, 48 h)","hydrolysis ([1]; pH 2 (0.1% TFA), 3 mM compound, TPPO internal standard)","hydrolysis of the starting material ([1]; pH 3.5 (50 mM NaOAc), 3 mM compound, 10% D2O, TPPO internal standard, 48 h)",labeling of MCF-7 lysate by small molecule control SM-PN [2],"stability at all tested pH values ([1]; pH 2, pH 3.5, pH 7.4, pH 8.5 and pH 11, 3 mM compound, 48 h)",labeling of MCF-7 lysate by small molecule control SM-PO [2]
"C#CP(=O)(O)Nc1ccc(CCNC(=O)CCCC[C@@H]2SC[C@@H]3NC(=O)N[C@@H]32)cc1 [SM-PN, N-(4-(2-biotinamidoethyl)phenyl)-P-ethynylphosphonamidic acid]",good stability in neutral and basic pH,already hydrolyzed in a few minutes,about 80%,No labeling was observed,–,–
"C#CP(=O)(O)Oc1ccc(CCNC(=O)CCCC[C@@H]2SC[C@@H]3NC(=O)N[C@@H]32)cc1 [SM-PO, 4-(2-biotinamidoethyl)phenyl ethynylphosphonic acid monoester]",–,–,–,–,excellent stability in all tested pH values,a band with increasing intensity was apparent in the biotin signal upon concentration increase
